According to ChEMBL document CHEMBL4613209, “Quinolone hybrids and their anti-cancer activities: An overview” (Eur J Med Chem, 2019):

Columns and labels:
PC-3 = test: Cytotoxicity against human PC3 cells assessed as reduction in cell viability; assay type: functional, cell-based
MCF7 [1] = test: Cytotoxicity against human MCF7 cells assessed as reduction in cell viability; assay type: functional, cell-based
NCI-H460 = test: Cytotoxicity against human NCI-H460 cells assessed as reduction in cell viability; assay type: functional, cell-based
SW-620 = test: Cytotoxicity against human SW620 cells assessed as reduction in cell viability; assay type: functional, cell-based
MGC-803 = test: Cytotoxicity against human MGC803 cells assessed as reduction in cell viability; assay type: functional, cell-based
HepG2 = test: Cytotoxicity against human HepG2 cells assessed as reduction in cell viability; assay type: functional, cell-based
GES1 = test: Cytotoxicity against human GES-1 cells assessed as reduction in cell viability; assay type: cell-based
SK-MEL3 = test: Cytotoxicity against human SK-MEL-3 cells assessed as reduction in cell viability by MTT assay; assay type: functional, cell-based
EJ = test: Cytotoxicity against human EJ cells assessed as reduction in cell viability by MTT assay; assay type: functional, cell-based
MCF7 [2] = test: Cytotoxicity against human MCF7 cells assessed as reduction in cell viability by MTT assay; assay type: functional, cell-based
A-431 = test: Cytotoxicity against human A431 cells assessed as reduction in cell viability by MTT assay; assay type: functional, cell-based
SW480 = test: Cytotoxicity against human SW480 cells assessed as reduction in cell viability by MTT assay; assay type: functional, cell-based

Row | Compound | IC50 (PC-3) [nM] | IC50 (MCF7 [1]) [nM] | IC50 (NCI-H460) [nM] | IC50 (SW-620) [nM] | IC50 (MGC-803) [nM] | IC50 (HepG2) [nM] | IC50 (GES1) [nM] | IC50 (SK-MEL3) [nM] | IC50 (EJ) [nM] | IC50 (MCF7 [2]) [nM] | IC50 (A-431) [nM] | IC50 (SW480) [nM]
1 | C[C@H]1COc2c(N3CCN(C)CC3)c(F)cc3c(=O)c(-c4nnc(NC(=O)CCCCCCCC(=O)Nc5ccccc5N)s4)cn1c23 | 46 to 203 | 46 to 203 | 46 to 203 | 46 to 203 | 46 to 203 | 46 to 203 | > 81500 |  |  |  |  | 
2 | C[C@H]1COc2c(N3CCN(C)CC3)c(F)cc3c(=O)c(-c4nnc(NC(=O)CCCCCCCC(=O)O)s4)cn1c23 | 1100 to 14300 | 1100 to 14300 | 1100 to 14300 | 1100 to 14300 | 1100 to 14300 | 1100 to 14300 | > 81500 |  |  |  |  | 
3 | CCn1cc(C(=O)O)c(=O)c2cc(F)c(N3CCN(CC(=O)c4ccc(Cl)s4)CC3)cc21 |  |  |  |  |  |  |  | ≥ 100000 | ≥ 100000 | ≥ 100000 | ≥ 100000 | ≥ 100000
4 | C[C@H]1COc2c(N3CCN(C)CC3)c(F)cc3c(=O)c(-c4nnc(NC(=O)CCCCCC(=O)O)s4)cn1c23 | 1100 to 14300 | 1100 to 14300 | 1100 to 14300 | 1100 to 14300 | 1100 to 14300 | 1100 to 14300 | > 81500 |  |  |  |  | 
5 | C[C@H]1COc2c(N3CCN(C)CC3)c(F)cc3c(=O)c(-c4nnc(NC(=O)CCCCCCCCC(=O)Nc5ccccc5N)s4)cn1c23 | 46 to 203 | 46 to 203 | 46 to 203 | 46 to 203 | 46 to 203 | 46 to 203 | > 81500 |  |  |  |  | 
6 | O=C(CN1CCN(c2cc3c(cc2F)c(=O)c(C(=O)O)cn3C2CC2)CC1)c1cccs1 |  |  |  |  |  |  |  | 2000 to 131000 | 2000 to 131000 | 2000 to 131000 | 2000 to 131000 | 2000 to 131000
7 | C[C@H]1COc2c(N3CCN(C)CC3)c(F)cc3c(=O)c(-c4nnc(NC(=O)CCCCCCC(=O)O)s4)cn1c23 | 1100 to 14300 | 1100 to 14300 | 1100 to 14300 | 1100 to 14300 | 1100 to 14300 | 1100 to 14300 | > 81500 |  |  |  |  | 
8 | C[C@H]1COc2c(N3CCN(C)CC3)c(F)cc3c(=O)c(-c4nnc(NC(=O)CCCCCCCCC(=O)O)s4)cn1c23 | 1100 to 14300 | 1100 to 14300 | 1100 to 14300 | 1100 to 14300 | 1100 to 14300 | 1100 to 14300 | > 81500 |  |  |  |  | 
9 | O=C(O)c1cn(C2CC2)c2cc(N3CCN(C/C(=N/O)c4ccc(Cl)s4)CC3)c(F)cc2c1=O |  |  |  |  |  |  |  | ≤ 20000 | ≤ 20000 | ≤ 20000 | ≤ 20000 | ≤ 20000
10 | CCn1cc(C(=O)O)c(=O)c2cc(F)c(N3CCN(CC(=O)c4ccc(Cl)s4)CC3)nc21 |  |  |  |  |  |  |  | ≥ 100000 | ≥ 100000 | ≥ 100000 | ≥ 100000 | ≥ 100000
